Legend:
[1] = test system: HBV (HBVcircle transfected HepG2 cells); assay: In vitro anti-HBV drug evaluation in HBVcircle transfected HepG2 cells; assay type: cell-based; conditions: treated 6 days
Description: X-[…] HP DNA transfection reagent (from Roche) was used for transfection. One day before transfection, cells were trypsinized and seeded onto plates, Cells were seeded at 0.8×10^5/well in 24 well plates for HepG2 and proliferation HepaRG cell line, and 3×10^5/well in 24 well plates for differentiated HepaRG cell line.
(§1) HBeAg or HBsAg were measured by using the HBeAg or HBsAg ELISA kit (from Autobio) according to the manufacturer's direction.
The transfected HepG2 cells were lysed using lysis buffer (50 mM Tris-HCl, pH8.0, 100 mM NaCl, 1% CA-630, 1×EDTA free proteinase inhibitor). After incubation at 4° C. for 1 h with agitation, cytoplasmic lysate was cleared by centrifugation. The lysate was separated by electrophoresis in 1.5% agarose gel and then transferred onto PVDF membrane (for Western blotting) or a positively charged nylon membrane (for southern blotting), for detecting the capsid protein and encapsidated DNA respectively.
After SDS-PAGE, gels were transferred to PVDF membrane by using iblot system (from Invitrogen). […]
The sample was loaded to an electrophoresis of 1.5% agarose gel in 1×TAE buffer for 2-3 hours. […] After incubating blots with an alkaline-phosphatase-conjugated anti-DIG antibody, hybridization signals were detected in a standard chemiluminescence reaction.
Next, the feasibility of evaluating anti-HBV drugs using HBVcircle system in cell culture models was assessed. […]

[2] = test system: HBV (HBVcircle injected C3H/HeN mice); assay: In vivo anti-HBV drug evaluation in HBVcircle HDI mice; conditions: 10 μg HBVcircle, 0.03mg/kg QD orally for 29 days from day 23
Description: The animals were grouped based on Day-1 body weights. On Day 0, all animals were subjected to hydrodynamic injection through tail vein within 5 seconds with 2.5-20 μg DNA in a volume (mL) of saline equivalent to 8% of body weight (g) (Liu, et al., 1999, Gene Ther, 6: 1258-66, Zhang, et al., 1999, Hum Gene Ther, 10: 1735-7). After animal exclusion due to technical failure of hydrodynamic injection or low HBV marker expression on Day 1 or Day 3, the remaining mice were maintained for long term evaluation. Blood samples were collected for serum preparation on indicated time post HDI injection.
For compound treatment, on Day 20 post HDI (DAY-3 of compound treatment), C3H/HeN mice were divided into 4 groups based on serum HBsAg levels and body weights on DAY 20. ETV and R848 were diluted in saline from stock solutions on treatment days. Vehicle was RC591. All test compounds were given orally with indicated dose and frequency.
as §1
HBV DNA in cell culture supernatant or mouse serum was extracted using MagNA Pure 96 System MagNA Pure 96 System (from Roche). HBV DNA levels were determined via RT-PCR. The primer and probe sequences are shown below. […]

C=C1[C@H](CO)[C@@H](O)C[C@@H]1n1cnc2c(=O)[nH]c(N)nc21 [ETV, Entecavir]
HBV DNA replication (encapsidated HBV DNA, southern blot) [1]: efficiently blocked HBV DNA replication in a dose dependent manner
other viral proteins expression [1]: did not affect other viral proteins expression
HBV DNA in serum [2]: efficiently reduced HBV DNA in serum to undetectable level

— patent publication US20170327797A1, “R[…] CCCDNA, THE METHOD TO GENERATE THEREOF AND THE USE THEREOF” (priority 2015, published 2017)
